Key:
Test in all cases: cells
[1] = system: NB13; assay type: functional, cell-based; conditions: Homo sapiens;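 further: cell viability readout measuring growth inhibition of human NB13 cells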
Description: SANGER: Inhibition of human NB13 cell growth in a cell viability assay.

[2] = system: Ramos-2G6-4C10; assay type: functional, cell-based; conditions: Homo sapiens;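 further: growth inhibition of the cell line, measured by a cell viability read-out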
Description: SANGER: Inhibition of human Ramos-2G6-4C10 cell growth in a cell viability assay.

[3] = system: SF-539; assay type: functional, cell-based; conditions: Homo sapiens;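 further: Read-out is a cell viability assay, with IC50 reflecting inhibition of cell growth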
Description: SANGER: Inhibition of human SF539 cell growth in a cell viability assay.

[4] = system: OMC-1; assay type: functional, cell-based; conditions: Homo sapiens;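 further: growth inhibition of the OMC-1 cell line, measured by a cell viability assay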
Description: SANGER: Inhibition of human OMC-1 cell growth in a cell viability assay.

[5] = system: A4-Fuk; assay type: functional, cell-based; conditions: Homo sapiens;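 further: growth inhibition of A4-Fuk cells, read out by a cell viability assay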
Description: SANGER: Inhibition of human A4-Fuk cell growth in a cell viability assay.

[6] = system: RPMI-8226; assay type: functional, cell-based; conditions: Homo sapiens
Description: SANGER: Inhibition of human RPMI-8226 cell growth in a cell viability assay.

[7] = system: KG-1; assay type: functional, cell-based; conditions: Homo sapiens;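 further: growth inhibition of KG-1 cells, read out by a cell viability assay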
Description: SANGER: Inhibition of human KG-1 cell growth in a cell viability assay.

[8] = system: HCC2218; assay type: functional, cell-based; conditions: Homo sapiens;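 further: cell viability assay read-out, with IC50 given as the concentration that inhibits growth of the cell line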
Description: SANGER: Inhibition of human HCC2218 cell growth in a cell viability assay.

[9] = system: TE-8; assay type: functional, cell-based; conditions: Homo sapiens;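 further: growth inhibition of TE-8 cells, measured with a cell viability readout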
Description: SANGER: Inhibition of human TE-8 cell growth in a cell viability assay.

[10] = system: HOP-62; assay type: functional, cell-based; conditions: Homo sapiens;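 further: cell growth inhibition determined with a viability assay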
Description: SANGER: Inhibition of human HOP-62 cell growth in a cell viability assay.

[11] = system: BB65-RCC; assay type: functional, cell-based; conditions: Homo sapiens;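 further: growth inhibition of the cell line, measured with a cell viability assay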
Description: SANGER: Inhibition of human BB65-RCC cell growth in a cell viability assay.

[12] = system: SCH; assay type: functional, cell-based; conditions: Homo sapiens;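 further: growth inhibition of human SCH cells, read out in a cell viability assay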
Description: SANGER: Inhibition of human SCH cell growth in a cell viability assay.

[13] = system: GI-1; assay type: functional, cell-based; conditions: Homo sapiens;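 further: growth inhibition of human GI-1 cells, measured with a cell viability readout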
Description: SANGER: Inhibition of human GI-1 cell growth in a cell viability assay.

[14] = system: SK-N-DZ; assay type: functional, cell-based; conditions: Homo sapiens;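 further: growth inhibition of the cancer cell line, read out through a viability assay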
Description: SANGER: Inhibition of human SK-N-DZ cell growth in a cell viability assay.

[15] = system: SK-NEP-1; assay type: functional, cell-based; conditions: Homo sapiens;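 further: growth inhibition of human SK-NEP-1 cells, read out by a cell viability assay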
Description: SANGER: Inhibition of human SK-NEP-1 cell growth in a cell viability assay.

[16] = system: MHH-PREB-1; assay type: functional, cell-based; conditions: Homo sapiens;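 further: cell viability assay measuring inhibition of proliferation of human MHH-PREB-1 cells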
Description: SANGER: Inhibition of human MHH-PREB-1 cell growth in a cell viability assay.

[17] = system: MOLT-16; assay type: functional, cell-based; conditions: Homo sapiens;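 further: growth inhibition of human MOLT-16 cells, read out with a cell viability assay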
Description: SANGER: Inhibition of human MOLT-16 cell growth in a cell viability assay.

[18] = system: NB69; assay type: functional, cell-based; conditions: Homo sapiens;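 further: growth inhibition of NB69 cells, determined by a cell viability assay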
Description: SANGER: Inhibition of human NB69 cell growth in a cell viability assay.

[19] = system: SW-620; assay type: functional, cell-based; conditions: Homo sapiens;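 further: growth inhibition of human SW-620 cells, measured by a cell viability assay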
Description: SANGER: Inhibition of human SW620 cell growth in a cell viability assay.

[20] = system: JVM-3; assay type: functional, cell-based; conditions: Homo sapiens;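 further: growth inhibition of human JVM-3 cells, read out with a cell viability assay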
Description: SANGER: Inhibition of human JVM-3 cell growth in a cell viability assay.

[21] = system: D-502MG; assay type: functional, cell-based; conditions: Homo sapiens
Description: SANGER: Inhibition of human D-502MG cell growth in a cell viability assay.

[22] = system: SK-UT-1; assay type: functional, cell-based; conditions: Homo sapiens;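 further: growth inhibition of SK-UT-1 cells, measured by a cell viability assay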
Description: SANGER: Inhibition of human SK-UT-1 cell growth in a cell viability assay.

[23] = system: EW-13; assay type: functional, cell-based; conditions: Homo sapiens;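 further: growth inhibition of EW-13 cells, read out with a cell viability assay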
Description: SANGER: Inhibition of human EW-13 cell growth in a cell viability assay.

[24] = system: LB2518-MEL; assay type: functional, cell-based; conditions: Homo sapiens;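 further: growth inhibition of human LB2518-MEL cells, measured with a cell viability assay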
Description: SANGER: Inhibition of human LB2518-MEL cell growth in a cell viability assay.

[25] = system: RPMI-8866; assay type: functional, cell-based; conditions: Homo sapiens
Description: SANGER: Inhibition of human RPMI-8866 cell growth in a cell viability assay.

[26] = system: NCI-H1581; assay type: functional, cell-based; conditions: Homo sapiens;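 further: cell growth inhibition read out by a viability assay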
Description: SANGER: Inhibition of human NCI-H1581 cell growth in a cell viability assay.

[27] = system: SK-MEL-1; assay type: functional, cell-based; conditions: Homo sapiens;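 further: growth inhibition of human SK-MEL-1 cells, read out by a cell viability assay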
Description: SANGER: Inhibition of human SK-MEL-1 cell growth in a cell viability assay.

[28] = system: NCI-H1693; assay type: functional, cell-based; conditions: Homo sapiens;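 further: growth inhibition of the human cell line, read out with a cell viability assay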
Description: SANGER: Inhibition of human NCI-H1693 cell growth in a cell viability assay.

[29] = system: Becker; assay type: functional, cell-based; conditions: Homo sapiens;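 further: growth inhibition of Becker cells, read out with a cell viability assay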
Description: SANGER: Inhibition of human Becker cell growth in a cell viability assay.

[30] = system: KM-H2; assay type: functional, cell-based; conditions: Homo sapiens;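 further: growth inhibition of KM-H2 cells, read out by a cell viability assay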
Description: SANGER: Inhibition of human KM-H2 cell growth in a cell viability assay.

[31] = system: 697; assay type: functional, cell-based; conditions: Homo sapiens
Description: SANGER: Inhibition of human 697 cell growth in a cell viability assay.

[32] = system: HAL-01; assay type: functional, cell-based; conditions: Homo sapiens;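 further: growth inhibition of human HAL-01 cells, read out with a cell viability assay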
Description: SANGER: Inhibition of human HAL-01 cell growth in a cell viability assay.

[33] = system: A498; assay type: functional, cell-based; conditions: Homo sapiens;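 further: growth inhibition of human A498 cells, read out with a cell viability assay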
Description: SANGER: Inhibition of human A498 cell growth in a cell viability assay.

[34] = system: LB1047-RCC; assay type: functional, cell-based; conditions: Homo sapiens;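 further: inhibition of cell growth, determined with a cell viability assay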
Description: SANGER: Inhibition of human LB1047-RCC cell growth in a cell viability assay.

[35] = system: TGBC24TKB; assay type: functional, cell-based; conditions: Homo sapiens;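 further: growth inhibition of human TGBC24TKB cells, read out with a cell viability assay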
Description: SANGER: Inhibition of human TGBC24TKB cell growth in a cell viability assay.

[36] = system: NCI-H1304; assay type: functional, cell-based; conditions: Homo sapiens;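 further: growth inhibition of the cancer cell line, measured in a cell viability assay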
Description: SANGER: Inhibition of human NCI-H1304 cell growth in a cell viability assay.

[37] = system: ATN-1; assay type: functional, cell-based; conditions: Homo sapiens;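 further: growth inhibition of human ATN-1 cells, read out with a cell viability assay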
Description: SANGER: Inhibition of human ATN-1 cell growth in a cell viability assay.

[38] = system: KNS-81-FD; assay type: functional, cell-based; conditions: Homo sapiens;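 further: growth inhibition of KNS-81-FD cells, read out with a cell viability assay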
Description: SANGER: Inhibition of human KNS-81-FD cell growth in a cell viability assay.

[39] = system: MeWo; assay type: functional, cell-based; conditions: Homo sapiens;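 further: growth inhibition of MeWo cells, determined by a cell viability readout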
Description: SANGER: Inhibition of human Mewo cell growth in a cell viability assay.

[40] = system: HOS; assay type: functional, cell-based; conditions: Homo sapiens;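 further: growth inhibition of human HOS cells, read out with a cell viability assay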
Description: SANGER: Inhibition of human HOS cell growth in a cell viability assay.

[41] = system: JVM-2; assay type: functional, cell-based; conditions: Homo sapiens;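 further: growth inhibition of JVM-2 cells determined by a cell viability assay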
Description: SANGER: Inhibition of human JVM-2 cell growth in a cell viability assay.

[42] = system: ES6; assay type: functional, cell-based; conditions: Homo sapiens;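 further: growth inhibition of human ES6 cells, read out with a cell viability assay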
Description: SANGER: Inhibition of human ES6 cell growth in a cell viability assay.

[43] = system: ES4; assay type: functional, cell-based; conditions: Homo sapiens;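 further: growth inhibition of human ES4 cells, read out by a cell viability assay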
Description: SANGER: Inhibition of human ES4 cell growth in a cell viability assay.

[44] = system: ES5; assay type: functional, cell-based; conditions: Homo sapiens;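 further: growth inhibition of human ES5 cells, read out by a cell viability assay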
Description: SANGER: Inhibition of human ES5 cell growth in a cell viability assay.

[45] = system: KARPAS-299; assay type: functional, cell-based; conditions: Homo sapiens
Description: SANGER: Inhibition of human KARPAS-299 cell growth in a cell viability assay.

[46] = system: MMAC-SF; assay type: functional, cell-based; conditions: Homo sapiens;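 further: growth inhibition of human MMAC-SF cells, read out with a cell viability assay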
Description: SANGER: Inhibition of human MMAC-SF cell growth in a cell viability assay.

[47] = system: BV-173; assay type: functional, cell-based; conditions: Homo sapiens
Description: SANGER: Inhibition of human BV-173 cell growth in a cell viability assay.

[48] = system: NCI-H1395; assay type: functional, cell-based; conditions: Homo sapiens;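 further: cell viability assay read-out quantifying reduced proliferation of human NCI-H1395 cells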
Description: SANGER: Inhibition of human NCI-H1395 cell growth in a cell viability assay.

[49] = system: NCI-H1650; assay type: functional, cell-based; conditions: Homo sapiens;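 further: growth inhibition of human NCI-H1650 cells measured by a cell viability assay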
Description: SANGER: Inhibition of human NCI-H1650 cell growth in a cell viability assay.

[50] = system: CAL-12T; assay type: functional, cell-based, Homo sapiens; conditions: Homo sapiens, CAL-12T;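 further: growth inhibition of human CAL-12T cells, read out with a cell viability assay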
Description: SANGER: Inhibition of human CAL-12T cell growth in a cell viability assay.

[51] = system: TGBC1TKB; assay type: functional, cell-based; conditions: Homo sapiens;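 further: growth inhibition of TGBC1TKB cells, read out by a cell viability assay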
Description: SANGER: Inhibition of human TGBC1TKB cell growth in a cell viability assay.

[52] = system: HDLM-2; assay type: functional, cell-based; conditions: Homo sapiens;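 further: cell viability assay measuring suppression of HDLM-2 proliferation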
Description: SANGER: Inhibition of human HDLM-2 cell growth in a cell viability assay.

[53] = system: NCI-H1838; assay type: functional, cell-based; conditions: Homo sapiens;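 further: growth inhibition of NCI-H1838 cells, determined with a cell viability readout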
Description: SANGER: Inhibition of human NCI-H1838 cell growth in a cell viability assay.

[54] = system: NCI-H1563; assay type: functional, cell-based; conditions: Homo sapiens
Description: SANGER: Inhibition of human NCI-H1563 cell growth in a cell viability assay.

[55] = system: DJM-1; assay type: functional, cell-based; conditions: Homo sapiens
Description: SANGER: Inhibition of human DJM-1 cell growth in a cell viability assay.

[56] = system: KARPAS-45; assay type: functional, cell-based; conditions: Homo sapiens
Description: SANGER: Inhibition of human KARPAS-45 cell growth in a cell viability assay.

[57] = system: HCC1187; assay type: functional, cell-based; conditions: Homo sapiens
Description: SANGER: Inhibition of human HCC1187 cell growth in a cell viability assay.

[58] = system: RCC10RGB; assay type: functional, cell-based; conditions: Homo sapiens
Description: SANGER: Inhibition of human RCC10RGB cell growth in a cell viability assay.

[59] = system: EKVX; assay type: functional, cell-based; conditions: Homo sapiens
Description: SANGER: Inhibition of human EKVX cell growth in a cell viability assay.

CC[C@@]1(O)C(=O)OCc2c1cc1n(c2=O)Cc2cc3ccccc3nc2-1 [CAMPTOTHECIN]
IC50 [1]: 28.8 nM | IC50 [2]: 10.5 nM | IC50 [3]: 9.01 nM | IC50 [4]: 78.2 nM | IC50 [5]: 1.75 nM | IC50 [6]: 29.5 nM | IC50 [7]: 1.11 nM | IC50 [8]: 55.5 nM | IC50 [9]: 4.17 nM | IC50 [10]: > 100 nM | IC50 [11]: 1.85 nM | IC50 [12]: > 100 nM | IC50 [13]: 3.37 nM | IC50 [14]: 21.7 nM | IC50 [15]: 1.23 nM | IC50 [16]: 2.73 nM | IC50 [17]: 0.732 nM | IC50 [18]: 0.569 nM | IC50 [19]: 4.08 nM | IC50 [20]: 2.5 nM | IC50 [21]: 22.6 nM | IC50 [22]: 3.07 nM | IC50 [23]: 3.27 nM | IC50 [24]: 87.3 nM | IC50 [25]: 1.72 nM | IC50 [26]: 33.5 nM | IC50 [27]: 51.3 nM | IC50 [28]: 26.7 nM | IC50 [29]: 23.3 nM | IC50 [30]: 55.7 nM | IC50 [31]: 2.03 nM | IC50 [32]: 2.55 nM | IC50 [33]: 7.08 nM | IC50 [34]: 7.9 nM | IC50 [35]: 53.7 nM | IC50 [36]: 59.3 nM | IC50 [37]: 2.04 nM | IC50 [38]: 19.4 nM | IC50 [39]: 47 nM | IC50 [40]: 1.4 nM | IC50 [41]: > 100 nM | IC50 [42]: 88 nM | IC50 [43]: 1.47 nM | IC50 [44]: 0.774 nM | IC50 [45]: > 100 nM | IC50 [46]: 38.4 nM | IC50 [47]: 2.38 nM

Cn1c(=O)n(-c2ccc(C(C)(C)C#N)cc2)c2c3cc(-c4cnc5ccccc5c4)ccc3ncc21 [DACTOLISIB]
IC50 [48]: 199 nM | IC50 [49]: 204 nM | IC50 [1]: 118 nM | IC50 [2]: 8.49 nM | IC50 [3]: 52.3 nM | IC50 [4]: 100 nM | IC50 [5]: 46.5 nM | IC50 [6]: 33.8 nM | IC50 [7]: 84.2 nM | IC50 [8]: 6.61 nM | IC50 [9]: 66.5 nM | IC50 [50]: 38.6 nM | IC50 [11]: 12.7 nM | IC50 [12]: 67.1 nM | IC50 [51]: 23.1 nM | IC50 [13]: 60.3 nM | IC50 [14]: > 2000 nM | IC50 [15]: 34.2 nM | IC50 [16]: 9.12 nM | IC50 [17]: 17.2 nM | IC50 [18]: 22.5 nM | IC50 [19]: 50.4 nM | IC50 [20]: 30.8 nM | IC50 [21]: 106 nM | IC50 [23]: 95.8 nM | IC50 [24]: 157 nM | IC50 [52]: > 2000 nM | IC50 [25]: 72.8 nM | IC50 [53]: 1020 nM | IC50 [26]: 64 nM | IC50 [27]: > 2000 nM | IC50 [54]: 105 nM | IC50 [28]: 136 nM | IC50 [29]: 34.2 nM | IC50 [30]: 171 nM | IC50 [31]: 17.4 nM | IC50 [55]: 340 nM | IC50 [32]: 55.8 nM | IC50 [33]: 75.2 nM | IC50 [34]: 38.8 nM | IC50 [35]: 222 nM | IC50 [36]: 1650 nM | IC50 [37]: 73.9 nM | IC50 [56]: 13.5 nM | IC50 [38]: 19.5 nM | IC50 [57]: 576 nM | IC50 [58]: 224 nM | IC50 [39]: 12 nM | IC50 [40]: 21.1 nM | IC50 [41]: > 2000 nM | IC50 [42]: 92.8 nM | IC50 [59]: 101 nM | IC50 [43]: 21.1 nM | IC50 [44]: 14.7 nM | IC50 [45]: 1790 nM | IC50 [47]: 23.9 nM

CC(=O)c1c(C)c2cnc(Nc3ccc(N4CCNCC4)cn3)nc2n(C2CCCC2)c1=O [PALBOCICLIB]
IC50 [48]: > 4000 nM | IC50 [49]: > 4000 nM | IC50 [1]: > 4000 nM | IC50 [2]: 2770 nM | IC50 [3]: > 4000 nM | IC50 [4]: > 4000 nM | IC50 [5]: > 4000 nM | IC50 [6]: 527 nM | IC50 [7]: 1270 nM | IC50 [8]: 2350 nM | IC50 [9]: 1420 nM | IC50 [50]: > 4000 nM | IC50 [11]: 1510 nM | IC50 [12]: > 4000 nM | IC50 [51]: > 4000 nM | IC50 [13]: > 4000 nM | IC50 [14]: > 4000 nM | IC50 [15]: 220 nM | IC50 [16]: 637 nM | IC50 [17]: 258 nM | IC50 [18]: 162 nM | IC50 [19]: 2260 nM | IC50 [20]: 852 nM | IC50 [21]: > 4000 nM | IC50 [23]: > 4000 nM | IC50 [24]: > 4000 nM | IC50 [52]: > 4000 nM | IC50 [25]: 1590 nM | IC50 [26]: > 4000 nM | IC50 [27]: > 4000 nM | IC50 [54]: > 4000 nM | IC50 [28]: > 4000 nM | IC50 [29]: 2960 nM | IC50 [30]: 696 nM | IC50 [31]: 148 nM | IC50 [55]: > 4000 nM | IC50 [32]: 606 nM | IC50 [33]: > 4000 nM | IC50 [34]: 928 nM | IC50 [35]: > 4000 nM | IC50 [36]: > 4000 nM | IC50 [37]: > 4000 nM | IC50 [56]: 376 nM | IC50 [38]: > 4000 nM | IC50 [57]: > 4000 nM | IC50 [58]: > 4000 nM | IC50 [39]: 937 nM | IC50 [40]: 1350 nM | IC50 [41]: > 4000 nM | IC50 [42]: > 4000 nM | IC50 [59]: > 4000 nM | IC50 [43]: 2450 nM | IC50 [44]: 753 nM | IC50 [45]: > 4000 nM | IC50 [47]: 652 nM

From ChEMBL document CHEMBL1201861, “Genomics of Drug Sensitity in Cancer screening data, Wellcome Trust Sanger Institute”
